# In patent US7179821B2, “Method of treating of demyelinating diseases or conditions” (Aventis Pharmaceuticals Inc., priority 2001, dated 2007):
# “And” between values parts separate entries of the source, which are not always exact repeats. Identical values can stand only once. Marks after values point to notes of the source that are not given here.
# Legend:
# [1] = system: mechanical hyperalgesia after nerve ligation; experiment: Neuropathic pain model, spinal nerve constriction, von Frey paw withdrawal threshold; assay type: in vivo, rat; conditions: 90 mg/kg sc, tested 45 minutes after dosing
# Method: Adult male Sprague-Dawley rats received unilateral constriction of the L6 nerve to produce chronic nerve injury. Following recovery from surgery (3–7 days post operative) animals were tested for paw withdrawal threshold to mechanical stimuli applied to the affected paw. This was determined by the application of calibrated von Frey monofilaments to the plantar surface of each hindpaw. Only animals with a 50% decrease in withdrawal threshold in the ligated paw were employed in the study, and were randomly assigned to one of 6 groups: three groups receiving one of three doses of HP 184 (0.3, 3 and 20 mg/kg, po), a fourth group receiving a single dose of another compound referred to MDL (10 mg/kg, ip), a fifth group receiving gabapentin (90 mg/kg, sc), and a sixth group receiving vehicle only. Behavioral testing occurred 45 minutes following the gabapentin (90 mg/kg, sc), and 3 hours following the HP 184, MDL, and vehicle. A difference score between the ligated and non-ligated paw withdrawal thresholds is calculated for each animal, and these differences were subjected to ANOVA with group as the main factor. […] Analysis was between/within repeated measures ANOVA. […]
# [2] = system: RuR-induced flaccid paralysis; experiment: Antagonism of ruthenium red (RuR)-induced flaccid paralysis, flagpole test; assay type: in vivo, mouse; conditions: for antagonism of the flaccid paralysis induced by ip RuR (conclusion): doses of Table 3
# Method: Method and Results: Groups of 4–5 mice (CD-1; Charles River; 25–35 grams) were separately but simultaneously injected ip with ruthenium red and vehicle (1% glacial acetic acid), ruthenium red and 4-AP, or ruthenium red and HP 184. The compound known as “8183” was also tested in this paradigm. Starting at 15 minutes after injections, mice were placed near a “flagpole” apparatus and their ability to support their own body weight (ie, to hold on to the flagpole and not fall) was recorded. Results were recorded as the number of mice that could support their own body weight versus the total number of mice tested. All experiments were performed between 2PM and 4:30PM.
# [3] = system: demyelinated area at the moderate compression injury site; experiment: Histological study of spinal cords, demyelinated area (luxol fast blue); assay type: in vivo, rat; conditions: HP184 0.3, 1 or 3 mg/kg po or 4-AP 0.6 mg/kg ip, days 35–42 after moderate crush
# Method: A study to test whether the treatment with HP184 affected the amount of myelin in rats with moderate long term spinal cord crush injury when administered long after spinal cord injury.
# The spinal cords from rats described above in the assessment were used for this study.
# (50–60 mg/kg body weight, i.p.) and perfused transcardically—first with 100 mL 0.05M phosphate buffed saline (PBS) containing 0.1% heparin, followed by 300–500 mL of 4% paraformaldehyde (PFA). Segments T9 to L1 of the spinal cords were taken out, then cryo-protected in 30% sucrose solution and frozen at −70° C. in 10.24% polyvinyl alcohol and 4.26% polyethylene glycol.
# A segment of each cord including the lesion site plus 10 mm rostral and caudal to the lesion site was embedded in Tissue Tek medium. Serial sections were cut longitudinally at 20 μm intervals on a cryostat. Every third section was stained with luxol fast blue for myelin. The evaluation was performed by observers blinded as to treatment, on coded slides. Sections were examined under a light microscope for the extent of demyelination (the area without luxol fast blue staining).
# For determinations of the maximal demyelinated area of the cord, the whole section was digitized on photographs using a Zeiss microscope. The extent of demyelination was measured at the lesion center using a computerized Bioquant BQ-TCW98 image analysis progrem by an investigator who was blind to treatment group.
# Statistical analysis was performed on a Macintosh computer using GB-Stat ppc 6.5.2. The histological results were analyzed by the Kruskal-Wallis nonparametric analysis of variance (ANOVA). Post hoc comparisons were made using Mann-Whitney U tests.
# [4] = system: long-standing (25 days) spinal cord injury of minor intensity; experiment: Chronic crush experiment, 25-day old mild compression injury (1.6 mm), OFT score; assay type: in vivo, rat
# Description: Normal spinal cord diameter is approximately 2.5 mm. This compression represents a moderate injury characterized by initial open field walking scores of 1.5–2.5 in the Open Field Walking Scale. […] The spinal cords of female rats were exposed to laminectomy or crush to a diameter of 1.6 mm. This represented a minor injury, and was designed to result in OFT scores of 4.0 after 25 days of no treatment. […] In this experiment, OFT scores were slightly higher (4.3–4.5), leaving only a small window for improvement. […] Consistent improvement was also observed after once a day ip 0.6 mg/kg 4-AP as well. The statistical differences were based upon the changes for each individual rat (each rat was its own control) using Mann-Whitney U-test. All the behavioral tests on day1, day2 and day3 were performed at 3 hours after gavage. There was no drug given on day3 (first day started to give drug was day 0).
# [5] = system: moderate chronic (35 days post-injury) spinal cord crush; experiment: Long standing moderate spinal cord crush (35 days), OFT score; assay type: in vivo, rat
# Description: A tabular representation of the results from both chronic spinal cord injury studies (drugs first administered 25 days after a mild spinal cord crush and 35 days after a moderate spinal cord crush) are shown in Table 5.
# One hundred fifty adult female Wistar rats, 250–300 g weight, obtained from Charles River were housed in the McMaster University Health Sciences Centre (HSC) Central Animal Facilities (CAF) for at least one week. During that time they were exposed to the performance tests described below, to ensure they were familiar with them. Rats were handled daily for 2 weeks prior to surgery.
# Rats were anesthetized using isoflurane (3–5%): O2 (1 L/min) in an appropriately equipped surgical suite in the CAF. Temgesic (0.03 mg/kg body weight, subcutaneously (SQ)) was administered prior to surgery for pain relief. Spinal cords were crushed (compressed) with a 3.5 mm wide modified coverslip forceps (Blight 1991, procedure revised by Rathbone laboratory). The forceps were closed to 1.4 mm for 15 sec, which produced injury level equivalent to the mid-level (moderate) outcome on the Gruner scale (1996). The compression injury was otherwise performed according to the procedure described by Blight (1991).
# Changes in locomotor behaviour and segmental reflexes were assessed up to 5 weeks post injury. Animals were tested in an open field walking task, hind limb placement and foot orientation. The animals were evaluated on days 2, 7, 14, 21, 28 and 35 after surgery. By 35 days after surgery, almost no further spontaneous recovery occurs. Therefore treatment began on day 35.
# HP184 was dissolved in sterilized (autoclaved) deionized reverse-osmosis water acidified with glacial acetic acid (0.1 ml acid per 10 ml of water). 4-AP (Sigma, molecular weight 94.12; Jankowska E. et al., 1982; Gruner et al., 1999) was dissolved in physiological saline (0.6 mg/kg b.w.) and was administered by i.p. injection. One group of rats (vehicle control-1) received by oral gavage vehicle. Behaviourial testing was done immediately prior to receiving the gavage and at 3 hours thereafter. Then, the rats were scarified on day 35. All the other rats received either HP184 by oral gavage (0.3, 1, or 3 mg/kg bw depending on the group) or 4-AP (0.6 mg/kg, i.p.) or vehicle (vehicle control-2) once a day on the 35 to 42 days after surgery. On these days behaviourial tests were done immediately prior to receiving the gavage at 3 and 24 hours thereafter. Then, the rats were perfused on day 43 after the last behaviourial testing.
# Statistical analyses were performed on a Macintosh computer using GB-Stat ppc 6.5.2. The behavioral scores were analyzed by the Kruskal-Wallis nonparametric analysis of variance (ANOVA). Post hoc comparisons were made using Mann-Whitney U tests.
# SCI and MS patients = conditions: cited from earlier work
# [6] = 30 mg/kg ip with RuR 30 mg/kg ip, 15 min
# [7] = 30 mg/kg ip with RuR 30 mg/kg ip, 30 min
# [8] = 30 mg/kg ip with RuR 30 mg/kg ip, 45 min
# [9] = 100 mg/kg ip with RuR 30 mg/kg ip, 15 min
# [10] = 100 mg/kg ip with RuR 30 mg/kg ip, 30 min
# [11] = 100 mg/kg ip with RuR 30 mg/kg ip, 45 min
# [12] = 0.3 mg/kg ip with RuR 30 mg/kg ip, 15 min
# [13] = 0.3 mg/kg ip with RuR 30 mg/kg ip, 30 min
# [14] = 0.3 mg/kg ip with RuR 30 mg/kg ip, 45 min
# [15] = 0.6 mg/kg ip with RuR 30 mg/kg ip, 15 min
# [16] = 0.6 mg/kg ip with RuR 30 mg/kg ip, 30 min
# [17] = 0.6 mg/kg ip with RuR 30 mg/kg ip, 45 min
# [18] = 10 mg/kg ip with RuR 30 mg/kg ip, 15 min
# [19] = 10 mg/kg ip with RuR 30 mg/kg ip, 30 min
# [20] = 10 mg/kg ip with RuR 30 mg/kg ip, 45 min
molecule,measurement,setting,value
"NCC1(CC(=O)O)CCCCC1 [gabapentin, reference compound]","mechanical hyperalgesia, difference of ligated minus normal paw withdrawal threshold, FIG. 10",[1],clear reversal of hyperalgesia
diphenylhydaintoin [DPH],% of mice that could support their own body weight,[2]; [6],(26.7%)
same,number of mice that could support their own body weight versus total tested,[2]; [6],4 out of 15
same,% of mice that could support their own body weight,[2]; [7],(20%)
same,number of mice that could support their own body weight versus total tested,[2]; [7],3 out of 15
same,% of mice that could support their own body weight,[2]; [8],(26.7%)
same,number of mice that could support their own body weight versus total tested,[2]; [8],4 out of 15
same,% of mice that could support their own body weight,[2]; [9],(55%)
same,number of mice that could support their own body weight versus total tested,[2]; [9],11 out of 20
same,% of mice that could support their own body weight,[2]; [10],(50%)
same,number of mice that could support their own body weight versus total tested,[2]; [10],10 out of 20
same,% of mice that could support their own body weight,[2]; [11],(50%)
same,number of mice that could support their own body weight versus total tested,[2]; [11],10 out of 20
same,antagonism of the flaccid paralysis induced by ip RuR (conclusion),[2],lack of effect
Cc1cn(Nc2ccncc2F)c2ccccc12 [compound 8183],% of mice that could support their own body weight,[2]; [6],(92.8%)
same,number of mice that could support their own body weight versus total tested,[2]; [6],13 out of 14
same,% of mice that could support their own body weight,[2]; [7],(92.8%)
same,number of mice that could support their own body weight versus total tested,[2]; [7],13 out of 14
same,% of mice that could support their own body weight,[2]; [8],(100%)
same,number of mice that could support their own body weight versus total tested,[2]; [8],14 out of 14
"Nc1ccncc1 [4-AP, 4-amino pyridine]","myelinated / demyelinated area at the crush center, FIG. 7",[3],significantly greater myelinated area than that of saline controls
same,% of mice that could support their own body weight,[2]; [12],(88%)
same,number of mice that could support their own body weight versus total tested,[2]; [12],22 out of 25
same,% of mice that could support their own body weight,[2]; [13],(52%)
same,number of mice that could support their own body weight versus total tested,[2]; [13],13 out of 25
same,% of mice that could support their own body weight,[2]; [14],(48%)
same,number of mice that could support their own body weight versus total tested,[2]; [14],12 out of 25
same,% of mice that could support their own body weight,[2]; [15],(85.7%)
same,number of mice that could support their own body weight versus total tested,[2]; [15],12 out of 14
same,% of mice that could support their own body weight,[2]; [16],(57.1)
same,number of mice that could support their own body weight versus total tested,[2]; [16],8 out of 14
same,% of mice that could support their own body weight,[2]; [17],(57.1%)
same,number of mice that could support their own body weight versus total tested,[2]; [17],8 out of 14
same,antagonism of the flaccid paralysis induced by ip RuR (conclusion),[2],can antagonize the flaccid paralysis
same,OFT improvement compared to vehicle control (Mann-Whitney U-test),"[4]; 0.6 mg/kg ip once a day, p=0.0027",significant improvement at 90 min to 3 h and 12 h to day 2
same,"OFT score 3 hours after last dose (Day 28, mild)","[4]; 0.6 mg/kg ip once a day, three consecutive daily doses",4.53 ± 0.02 and 4.53 ± .023
same,"% possible improvement (highest score = 5), mild",[4]; 0.6 mpk ip,17.5%*
same,"Delta of OFT score, Day 25 to Day 28 (mild)",[4]; 0.6 mpk ip,.10
same,"OFT score prior to dose (Day 25, mild)","[4]; group 0.6 mg/kg ip, baseline before dosing",4.43 ± 0.03 and 4.43 ± .030
same,"motor recovery, Open Field Walking Test","[5]; 0.6 mg/kg ip, thirty-five days after moderate injury",similarly effective
same,"% possible improvement, moderate",[5]; 0.6 mpk ip,22.1%*
same,"Delta of OFT score, Day 35 to Day 39 (moderate)",[5]; 0.6 mpk ip,.22
same,OFT score Day 39 (moderate) 3 hrs after last dose,[5]; 0.6 mpk ip daily,4.17 ± .047
same,"open field locomotor ability (mean OFT scores) vs vehicle, FIGS. 6a and 6b","[5]; HP184 0.3, 1 or 3 mg/kg po or 4-AP 0.6 mg/kg ip once a day, days 35–42, treatment effect p<0.01",significantly different from that of control animals receiving vehicle
same,OFT score Day 35 (moderate) prior,"[5]; group 0.6 mpk ip, baseline before dosing",3.95 ± .084
same,"doses at which restlessness, confusion and generalized tonic-clonic seizures have been reported","SCI and MS patients; Ball et al, 1979, Bever et al, 1994",higher than 0.8 mg/kg
same,serum level necessary for significant improvement,"SCI and MS patients; MS patients, oral administration (Van Diemen et al, 1993)",33 to 75 ng/mL
same,serum level at which a grand mal seizure was reported,"SCI and MS patients; human study (Bever et al, 1994)",104 ng/mL
"Nc1nc2ccc(OC(F)(F)F)cc2s1 [RIL, riluzole]",% of mice that could support their own body weight,[2]; [18],(60%)
same,number of mice that could support their own body weight versus total tested,[2]; [18],9 out of 15
same,% of mice that could support their own body weight,[2]; [19],(26.7%)
same,number of mice that could support their own body weight versus total tested,[2]; [19],4 out of 15
same,% of mice that could support their own body weight,[2]; [20],(26.7%)
same,number of mice that could support their own body weight versus total tested,[2]; [20],4 out of 15
same,antagonism of the flaccid paralysis induced by ip RuR (conclusion),[2],lack of effect
